According to PubChem BioAssay (NCI):
≈ marks a conversion by molar mass, not a printed value.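 Interpolation was linear, between the two tested concentrations surrounding the appropriate level; five concentrations were tested over 48 hours in 96-well plates. Here, GI50 denotes the concentration required for 50% inhibition of growth. TGI: total growth inhibition.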

What was measured:
Test in all cases: NCI anticancer screen, dose series, 48 h
[1] = system: M14 melanoma
[2] = system: BT-549 breast
[3] = system: MCF7 breast
[4] = system: MALME-3M melanoma
[5] = system: SR leukemia
[6] = system: ACHN renal
[7] = system: SNB-19 CNS
[8] = system: HL-60(TB) leukemia
[9] = system: U251 CNS
[10] = system: A498 renal

| Compound | TGI [1] | TGI [2] | TGI [3] | TGI [4] | TGI [5] | TGI [6] | TGI [7] | TGI [8] | TGI [9] | TGI [10] | GI50 [1] | GI50 [2] | GI50 [3] | GI50 [4] | GI50 [5] | GI50 [6] | GI50 [8] | GI50 [9] | GI50 [10] | GI50 [7] |
| --- | --- | --- | --- | --- | --- | --- | --- | --- | --- | --- | --- | --- | --- | --- | --- | --- | --- | --- | --- | --- |
| CC(C)(C)OC[C@H](O)CC#N | > 100 µM | > 100 µM | > 100 µM | > 100 µM | > 100 µM | > 100 µM | > 100 µM | > 100 µM | > 100 µM | > 100 µM | – | – | – | – | – | – | – | – | – | – |
| Cc1ccc(S(=O)(=O)c2c(O)c3ccccc3n(C)c2=O)cc1 | > 100 µM | > 100 µM | > 100 µM | > 100 µM | – | – | > 100 µM | > 100 µM | > 100 µM | > 100 µM | – | – | – | – | – | – | – | – | – | – |
| CSc1cc(N)ccc1N=Nc1ccc(S(N)(=O)=O)cc1 | > 100 µM | 36.4 µM | > 100 µM | 84.4 µM | > 100 µM | 93 µM | > 100 µM | 82.8 µM | > 100 µM | > 100 µM | – | – | – | – | – | – | – | – | – | – |
| COc1ccc(C(=O)N2c3ccccc3Sc3ccccc32)c(C(F)(F)F)c1 | > 100 µM | 13.6 µM | > 100 µM | > 100 µM | 76.9 µM | > 100 µM | – | 0.793 µM | > 100 µM | 0.877 µM | 0.343 µM | 0.892 µM | 0.411 µM | 25.8 µM | 0.312 µM | 1.33 µM | 0.252 µM | 0.5 µM | 0.282 µM | – |
| COC(=O)[C@@]12CCCC(=O)[C@@H]1[C@H]1CCCC[C@H]12 | > 100 µM | > 100 µM | > 100 µM | > 100 µM | > 100 µM | > 100 µM | > 100 µM | – | > 100 µM | – | – | – | – | – | – | – | – | – | – | – |
| O=C(N[C@H]1c2ccsc2/C(=N/O)[C@H]1O)C(F)(F)F | > 100 µM | > 100 µM | > 100 µM | > 100 µM | > 100 µM | – | > 100 µM | > 100 µM | > 100 µM | > 100 µM | – | – | – | – | – | – | – | – | – | – |
| O=C1/C(=C2\Sc3c(ccc(Cl)c3Cl)C2=O)Sc2c1ccc(Cl)c2Cl | > 100 µM | > 100 µM | > 100 µM | > 100 µM | > 100 µM | > 100 µM | > 100 µM | – | > 100 µM | > 100 µM | – | – | – | – | – | – | – | – | – | – |
| O=C1C(Br)=C(c2ccccc2)S(=O)c2ccccc21 (stereo unspecified) | 27 µM | 32.1 µM | 10.4 µM | 22.4 µM | – | 6.53 µM | 39.9 µM | 6.63 µM | 22.8 µM | – | – | – | – | – | – | – | – | – | – | – |
| Cc1ccc(-c2n[nH]c(=O)[nH]2)cc1[N+](=O)[O-] | > 100 µM | > 100 µM | > 100 µM | > 100 µM | > 100 µM | > 100 µM | > 100 µM | > 100 µM | > 100 µM | > 100 µM | – | – | – | – | – | – | – | – | – | – |
| CC1(C)Oc2ccc(NC(=O)CCC(N)C(=O)O)cc2O1 (stereo unspecified) | > 100 µM | > 100 µM | > 100 µM | > 100 µM | > 100 µM | > 100 µM | > 100 µM | > 100 µM | > 100 µM | > 100 µM | – | – | – | – | – | – | – | – | – | – |
| C[C@]12CC[C@H](O)CC1=CC[C@@H]1[C@@H]2CC[C@]2(C)/C(=N/OCCN3CCCC3)CC[C@@H]12 | – | 37.6 µM | 44.9 µM | 27.1 µM | 35.5 µM | 68.2 µM | 72.1 µM | 23 µM | 36.2 µM | 29.8 µM | – | – | – | – | – | – | – | – | – | – |
| CCOc1cc(C2CC(c3ccc(NS(=O)(=O)c4cc([N+](=O)[O-])ccc4C)cc3)=NN2)ccc1O (stereo unspecified) | 43.8 µM | 51.6 µM | 49.6 µM | 75.3 µM | 53.6 µM | 76.7 µM | > 100 µM | 50.5 µM | – | 70.7 µM | – | – | – | – | – | – | – | – | – | – |
| COc1cccc(-c2cc(=O)c3ccc(C)nc3[nH]2)c1 | > 100 µM | > 39.7 µM | > 22.9 µM | > 100 µM | 0.0503 µM | > 100 µM | > 100 µM | 0.0532 µM | > 100 µM | 2.34 µM | – | – | – | – | – | – | – | – | – | – |
| Cc1c(NC2(C)C(=O)N(/N=C/c3ccccc3)N=C2c2ccccc2)n[nH]c1-c1ccccc1 (stereo unspecified) | > 100 µM | > 100 µM | > 100 µM | > 100 µM | – | > 100 µM | > 100 µM | > 100 µM | > 100 µM | > 100 µM | – | – | – | – | – | – | – | – | – | – |
| O=S1(=O)c2ccccc2NC(=S)CC1c1ccccc1 (stereo unspecified) | > 100 µM | > 100 µM | > 100 µM | > 100 µM | > 100 µM | > 100 µM | > 100 µM | > 100 µM | > 100 µM | – | – | – | – | – | – | – | – | – | – | – |
| Cc1cc(C)n(CN(Cn2nc(C)cc2C)C2CCCCC2)n1 | 36.8 µM | 49.6 µM | > 100 µM | 51.9 µM | > 100 µM | 51.9 µM | > 100 µM | – | 83.6 µM | > 100 µM | – | – | – | – | – | – | – | – | – | – |
| COc1ccc2nc3cc(Cl)ccc3c(NCCNCCCNC(=O)c3cc(-c4ccccc4)nc4ccccc34)c2c1 | > 100 µM | > 100 µM | > 100 µM | > 100 µM | > 100 µM | > 100 µM | > 100 µM | > 100 µM | > 100 µM | > 100 µM | – | – | – | – | – | – | – | – | – | – |
| Cn1c2ccccc2c2c3c(c4c5ccccc5n(C)c4c21)C(=O)c1ccccc1C3=O | > 100 µM | 52.6 µM | > 100 µM | 60 µM | 40.2 µM | 97.3 µM | 52.4 µM | > 100 µM | 45.9 µM | – | – | – | – | – | – | – | – | – | – | – |
| COc1cc(/C=C2/N=C(c3ccccc3)N(C3=NNC4(C(=O)N3)c3ccccc3-c3ccccc34)NC2=O)ccc1O | 105 mg/L | 47.5 mg/L | 77.1 mg/L | 57 mg/L | > 150 mg/L | 123 mg/L | 87.3 mg/L | > 150 mg/L | 44.8 mg/L | – | 34.7 mg/L | 25.9 mg/L | 33.2 mg/L | 26.5 mg/L | 48.3 mg/L | 36.3 mg/L | 51.2 mg/L | 24.5 mg/L | – | 34.6 mg/L (≈ 62.1 µM) |
| CC(C)CNC(=O)Cn1c(-c2ccccc2)cc2ccccc21 | > 100 µM | > 100 µM | > 100 µM | > 100 µM | > 100 µM | > 100 µM | > 100 µM | > 100 µM | > 100 µM | – | – | – | – | – | – | – | – | – | – | – |
